{"source": "patent US4603016A", "about": "“Cryogenic brine separation of water and isocyanates” (E. I. Du Pont de Nemours and Company, priority 1985, dated 1986)", "experiment": "storage stability of isolated MIC preparations (GC determination of MIC content immediately following collection and after storage for two weeks)", "format": "physicochemical", "details": "for % MIC After Storage / % MIC As Isolated: GC; for % MIC After Storage: after storage for two weeks; for % MIC As Isolated: immediately following collection", "method": "This example illustrates the stability of MIC preparations isolated by the process of the present invention. The procedure described in Example 1 was substantially repeated at MMF liquid feed rates of 2 mL/min. As described in Example 3, samples of the product of the brine condenser were collected for one hour periods, weighed, and yields estimated. Each sample was then analyzed by GC to determine MIC content immediately following collection, and again after storage for two weeks.", "data": [{"smiles": "CN=C=O", "note": "[MIC, methyl isocyanate]", "values": [{"measurement": "% MIC After Storage", "setting": "1st hr sample", "result": 92.3, "unit": "%"}, {"measurement": "% MIC As Isolated", "setting": "1st hr sample", "result": "> 98", "unit": "%"}, {"measurement": "% MIC After Storage", "setting": "2nd hr sample", "result": 92.3, "unit": "%"}, {"measurement": "% MIC As Isolated", "setting": "2nd hr sample", "result": "> 98", "unit": "%"}, {"measurement": "% MIC After Storage", "setting": "3rd hr sample", "result": 93.1, "unit": "%"}, {"measurement": "% MIC As Isolated", "setting": "3rd hr sample", "result": "> 98", "unit": "%"}, {"measurement": "% MIC After Storage", "setting": "4th hr sample", "result": 95.0, "unit": "%"}, {"measurement": "% MIC As Isolated", "setting": "4th hr sample", "result": "> 98", "unit": "%"}, {"measurement": "% MIC After Storage", "setting": "5th hr sample", "result": 95.4, "unit": "%"}, {"measurement": "% MIC As Isolated", "setting": "5th hr sample", "result": "> 98", "unit": "%"}, {"measurement": "degradation of product MIC during storage", "setting": "storage for two weeks, all samples", "result": "minimal degradation"}]}]}
